Consider 10 compounds from US6291405A, “Glycol based drilling fluid” (M-I LLC, priority 1998, dated 2001).

A short description of data set [1]: Viscosity properties of glycols, Fann 35A viscometer readings. Type of data set: physicochemical. How it is done:
Readings were taken on a Fann 35A viscometer at 600 and 300 rpm both at room temperature and 120° F.

For data set [2] the following is noted: cited from earlier work; for toxicity ranking: based on laboratory test data, direct ingestion; for LD50: single-dose oral.
Data set [3] is described as follows: Gumbo shale sticking test, diethylene glycol/water plus 10% GMO. The settings on record: in words. How it is done: This test was conducted using the test method described in example 2, except each test sample contained 10% glycerol monooleate (GMO) as the antisticking agent.

Take `CC(CO)CO` [2-Methyl Propyl 1,3-Diol, reference compound]: the “Fann 35A viscometer reading” value in data set [1] (120° F, 300 rpm) is 42; in data set [1] (120° F, 600 rpm) it was 80; in data set [1] (Room Temperature, 300 rpm), 216; in data set [1] (Room Temperature, 600 rpm), over 300.
Consider `OCCOCCO` [Diethylene Glycol, diethylene glycol], for which, in data set [2], the toxicity ranking result is “followed by diethylene, triethylene, and dipropylene glycols”; the LD50 was 16-21 gm/KG.
For `OCCO` [Ethylene Glycol, ethylene glycol], in data set [2], the toxicity ranking entry is “the most toxic” and the LD50 is given as 6-12 gm/KG.
For the compound `OCC(O)CO` [Glycerine, reference compound], the “Fann 35A viscometer reading” value in data set [1] (120° F, 300 rpm) is on record as 135; in data set [1] (120° F, 600 rpm) it was 262; in data set [1] (Room Temperature, 300 rpm) it was over 300; in data set [1] (Room Temperature, 600 rpm) it was over 300.
Consider `CC(O)CO` (centres unmarked) [Propylene Glycol, propylene glycol], for which the “Fann 35A viscometer reading” value is listed as 15 in data set [1] (120° F, 300 rpm); 28 in data set [1] (120° F, 600 rpm); 47 in data set [1] (Room Temperature, 300 rpm); 92 in data set [1] (Room Temperature, 600 rpm). Also, in data set [2], the toxicity ranking entry is reported as “the least toxic”. Moreover, the LD50 in data set [2] is given as 21-34 gm/KG.
With `OCCOCCOCCO` [Triethylene Glycol, triethylene glycol], the “Fann 35A viscometer reading” value turned out to be 16 in data set [1] (120° F, 300 rpm); 31 in data set [1] (120° F, 600 rpm); 42 in data set [1] (Room Temperature, 300 rpm); 83 in data set [1] (Room Temperature, 600 rpm). For the same compound, the toxicity ranking entry in data set [2] is “followed by diethylene, triethylene, and dipropylene glycols”. In addition, the LD50 in data set [2] is listed as 16-22 gm/KG.
On to `CC(O)COC(C)COC(C)CO` (centres unmarked) [Tripropylene Glycol, tripropylene glycol], for which the “Fann 35A viscometer reading” value is recorded as 18 in data set [1] (120° F, 300 rpm); 34 in data set [1] (120° F, 600 rpm); 59 in data set [1] (Room Temperature, 300 rpm); 116 in data set [1] (Room Temperature, 600 rpm). For the same compound, the toxicity ranking result in data set [2] is “the most toxic”.
On to `CCCCCCCC/C=C\CCCCCCCC(=O)OCC(O)CO` (centres unmarked) [glycerol monooleate], for which the antisticking properties result in data set [3] is “improved the antisticking properties of the diethylene glycol fluids”.
Take butylene glycol: in data set [2], the toxicity ranking result is on record as “the least toxic” and the LD50 is given as 23-30 gm/KG.
For dipropylene glycol, the “Fann 35A viscometer reading” value in data set [1] (120° F, 300 rpm) is on record as 21; in data set [1] (120° F, 600 rpm), 41; in data set [1] (Room Temperature, 300 rpm), 82; in data set [1] (Room Temperature, 600 rpm), 163. Besides, in data set [2], the toxicity ranking result was “followed by diethylene, triethylene, and dipropylene glycols”. Moreover, the LD50 in data set [2] was ~ 15 gm/KG.
